pIC50: −log10 of the molar value. Structures can show the parent of a compound that is named as a salt.

What all share (format): biochemical
The target of test [1] is T1, Abl kinase (Homo sapiens, UniProt P00519).
T1 sequence (P00519 229-512): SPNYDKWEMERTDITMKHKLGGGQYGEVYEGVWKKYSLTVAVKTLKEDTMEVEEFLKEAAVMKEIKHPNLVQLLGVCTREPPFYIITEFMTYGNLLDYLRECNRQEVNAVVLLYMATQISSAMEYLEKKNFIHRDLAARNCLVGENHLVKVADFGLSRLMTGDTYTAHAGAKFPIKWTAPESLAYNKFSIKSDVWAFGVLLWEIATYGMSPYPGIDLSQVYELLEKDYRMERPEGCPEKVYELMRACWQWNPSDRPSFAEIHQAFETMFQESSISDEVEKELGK
In words: Abl kinase assay A1 (pyruvate kinase/lactate dehydrogenase coupled, spectrophotometric). The note with it: Method A1; for pIC50: read-out: Abl Data (IC50). How it is done:
(§1) IC50 values were calculated from a series of percent inhibition values determined at a range of inhibitor concentrations using software routines as implemented in the GraphPad Prism software package.

The target of test [2] is T2, KDR kinase (Homo sapiens, UniProt P35968, DEL940-989/E990V). In words: KDR kinase assay K2 (as K1, 2.1 nM enzyme, 2 h pre-incubation, 1.0 mM ATP). The note with it: Method K2; for pIC50: read-out: KDR Data (IC50). How it is done:
as §1

For test [3], the target named is T3, phosphorylated p-38-alpha kinase (Homo sapiens, UniProt Q16539). In words: P-38 alpha kinase assay P2 (as P1, not pre-incubated). The note with it: method P2 (not pre-incubated). The method, then:
Same as assay P1 except that (1) the reaction was not pre-incubated.

Test [4] deals with T1, Abl kinase. Kind of test: Abl kinase assay A2 (as A1, 1.1 nM enzyme, 2 h pre-incubation, 0.5 mM ATP). How it is done: as §1
Test [5] has as its target T4, B-Raf(V599E) kinase (Homo sapiens, UniProt P15056, V600E). In words: B-Raf(V599E) kinase assay B2 (construct 2 at 2 nM, 1 h pre-incubation). How it is done:
(§2) The test compounds were incubated with the reaction mixtureat 30° C. for 2 h. […] The reaction rate was calculated using the […] time frame. […] IC50 values were calculated from a series of percent inhibition values determined at a range of inhibitor concentrations using software routines as implemented in the GraphPad Prism software package.
Same as assay B1 except that (1) construct 2 was employed at a nominal concentration of 2 nM (2) the reaction was pre-incubated at 30° C. for 1 h prior to initiation with ATP (3) a reading time frame of 0.5 h to 1.5 h.
Target sequence in this assay (P15056 433-726 V600E): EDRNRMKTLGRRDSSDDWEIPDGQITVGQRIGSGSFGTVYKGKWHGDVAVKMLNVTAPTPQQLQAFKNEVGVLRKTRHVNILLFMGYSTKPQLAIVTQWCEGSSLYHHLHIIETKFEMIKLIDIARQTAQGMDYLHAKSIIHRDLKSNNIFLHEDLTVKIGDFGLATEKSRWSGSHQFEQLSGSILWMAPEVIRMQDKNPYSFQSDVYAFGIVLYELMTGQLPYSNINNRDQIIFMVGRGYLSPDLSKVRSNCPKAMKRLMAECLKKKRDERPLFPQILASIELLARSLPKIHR

The target of test [6] is T4, B-Raf(V599E) kinase. In words: B-Raf(V599E) kinase assay B1 (construct 1, MEK1 substrate, coupled spectrophotometric). How it is done: as §2
Target sequence in this assay (P15056 with tags, fused parts or gaps V600E): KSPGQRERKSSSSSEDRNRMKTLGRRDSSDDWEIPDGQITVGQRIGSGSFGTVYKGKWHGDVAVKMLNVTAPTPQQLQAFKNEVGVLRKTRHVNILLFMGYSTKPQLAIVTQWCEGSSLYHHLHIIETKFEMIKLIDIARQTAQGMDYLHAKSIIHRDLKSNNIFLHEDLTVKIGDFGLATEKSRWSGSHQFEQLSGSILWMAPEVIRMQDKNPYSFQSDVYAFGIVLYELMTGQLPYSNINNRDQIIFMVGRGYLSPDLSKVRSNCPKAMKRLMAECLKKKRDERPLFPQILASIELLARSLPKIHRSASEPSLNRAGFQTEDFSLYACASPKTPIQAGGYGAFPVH
Test [7] deals with T3, phosphorylated p-38-alpha kinase. Kind of test: P-38 alpha kinase assay P1 (coupled spectrophotometric, 2 h pre-incubation).
For test [8], the target named is T2, KDR kinase. Kind of test: KDR kinase assay K1 (pyruvate kinase/lactate dehydrogenase coupled, spectrophotometric). The note with it: Method K1; read-out: KDR Data (IC50). How it is done:
as §1

Where [9] appears, read: Method A2, read-out: Abl Data (IC50).
Where [10] appears, read: method P1 (2 h pre-incubation), read-out: P-38 Data.

T3 sequence (Q16539 1-360 isoform Q16539-2): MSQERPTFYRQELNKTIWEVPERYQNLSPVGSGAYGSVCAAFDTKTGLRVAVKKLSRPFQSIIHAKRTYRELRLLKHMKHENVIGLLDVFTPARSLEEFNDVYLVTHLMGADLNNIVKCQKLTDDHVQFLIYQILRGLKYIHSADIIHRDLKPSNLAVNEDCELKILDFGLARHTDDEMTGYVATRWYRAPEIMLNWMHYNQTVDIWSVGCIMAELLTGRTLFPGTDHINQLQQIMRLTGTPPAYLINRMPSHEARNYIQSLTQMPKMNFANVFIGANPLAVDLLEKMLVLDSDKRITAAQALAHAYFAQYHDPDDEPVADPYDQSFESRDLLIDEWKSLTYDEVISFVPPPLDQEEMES
T2 sequence (P35968 with tags, fused parts or gaps DEL940-989/E990V): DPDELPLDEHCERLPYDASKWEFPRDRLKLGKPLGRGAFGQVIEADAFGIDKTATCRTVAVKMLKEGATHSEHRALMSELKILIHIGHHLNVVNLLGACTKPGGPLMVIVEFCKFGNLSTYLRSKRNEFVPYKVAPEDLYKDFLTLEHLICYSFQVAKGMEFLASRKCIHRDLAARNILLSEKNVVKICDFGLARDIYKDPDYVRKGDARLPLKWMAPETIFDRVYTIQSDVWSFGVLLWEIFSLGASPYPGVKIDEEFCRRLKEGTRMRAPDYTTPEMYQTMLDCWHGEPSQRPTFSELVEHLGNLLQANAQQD

As for `CC(C)(C)c1cc(NC(=O)Nc2cccc(Cl)c2)n(-c2cccc(C#N)c2)n1` [Example 8, 1-(3-t-butyl-1-(3-cyanophenyl)-1H-pyrazol-5-yl)-3-(3-chlorophenyl)urea], the inhibition at 10 µM in test [1] (@ 10 μM, read-out: Abl Data (percent inhibition)) came out at 81%; in test [2] (@ 10 μM, read-out: KDR Data (percent inhibition)), 96%. Further, in test [3], the pIC50 was 7.60.
For the compound `CNC(=O)c1cc(Oc2cccc(NC(=O)Nc3cc(C(C)(C)C)nn3-c3ccc4[nH]c(=O)ccc4c3)c2)ccn1` [Example 157, 1-(3-t-butyl-1-(2-oxo-1,2-dihydroquinolin-6-yl)-1H-pyrazol-5-yl)-3-(3-(2-(methylcarbamoyl)pyridin-4-yloxy)phenyl)urea], the pIC50 is 7.51 in test [4] (setting [9]) and 7.40 in test [5].
On the same counts, the results for `CNC(=O)c1cc(Oc2ccc(NC(=O)Nc3cc(C(C)(C)C)nn3-c3ccc4nc(NC)ccc4c3)cc2)ccn1` [Example 174, 1-(3-t-butyl-1-(2-(methylamino)quinolin-6-yl)-1H-pyrazol-5-yl)-3-(4-(2-(methylcarbamoyl)pyridin-4-yloxy)phenyl)urea] are 8.74 and 6.61.
`CC(C)(C)c1cc(NC(=O)Nc2cccc(Br)c2)n(-c2cccc(C#N)c2)n1` [Example 5, 1-(3-t-butyl-1-(3-cyanophenyl)-1H-pyrazol-5-yl)-3-(3-bromophenyl)urea]: the pIC50 in test [1] was 5.70; in test [2] it was 6.07; in test [6] it was 7.06; in test [3], 7.42.
With `CC(C)(C)c1cc(NC(=O)Nc2cccc(Cl)c2Cl)n(-c2ccc3[nH]ccc3c2)n1` [Example 115, 1-(3-t-butyl-1-(1H-indol-5-yl)-1H-pyrazol-5-yl)-3-(2,3-dichlorophenyl)urea], the pIC50 in test [1] was 6.77; in test [2], 6.09; in test [5], 6.01; in test [7] (setting [10]), 6.31.
In the case of `Cn1c(=O)c(-c2cccc(NC(=O)Nc3cc(C(C)(C)C)nn3-c3ccc4c(c3)CCN4S(C)(=O)=O)c2)cc2cncnc21` [Example 197, 1-(3-t-butyl-1-(1-(methylsulfonyl)indolin-5-yl)-1H-pyrazol-5-yl)-3-(3-(8-methyl-7-oxo-7,8-dihydropyrido[2,3-d]pyrimidin-6-yl)phenyl)urea], the pIC50 was 7.92 in test [4] (setting [9]), 7.57 in test [5] and 7.55 in test [7] (setting [10]).
For `CC(C)(C)c1cc(NC(=O)Nc2cccc(Cl)c2Cl)n(-c2ccc3[nH]ncc3c2)n1` [Example 121, 1-(3-t-butyl-1-(1H-indazol-5-yl)-1H-pyrazol-5-yl)-3-(2,3-dichlorophenyl)urea], in that order: 6.00, 6.98 and 7.40.
For the compound `CC(C)(C)c1cc(NC(=O)Nc2ccc(-c3cccc4c3CNC4=O)cc2)n(-c2cccc(-c3cn[nH]c3)c2)n1` [Example 51, 1-(1-(3-(1H-pyrazol-4-yl)phenyl)-3-t-butyl-1H-pyrazol-5-yl)-3-(4-(1-oxoisoindolin-4-yl)phenyl)urea], the pIC50 in test [4] (setting [9]) is 7.28; in test [5], 7.54.
On the same counts, the results for `Cn1c(=O)c(-c2cccc(NC(=O)Nc3cc(C4CCCC4)nn3-c3ccc4c(c3)CCC(=O)N4)c2)cc2cncnc21` [Example 134, 1-(3-cyclopentyl-1-(2-oxo-1,2,3,4-tetrahydroquinolin-6-yl)-1H-pyrazol-5-yl)-3-(3-(8-methyl-7-oxo-7,8-dihydropyrido[2,3-d]pyrimidin-6-yl)phenyl)urea] are 7.28 and 7.39.
For `CC(C)(C)c1cc(NC(=O)Nc2cccc(Cl)c2Cl)n(-c2ccc3cn[nH]c3c2)n1` [Example 120, 1-(3-t-butyl-1-(1H-indazol-6-yl)-1H-pyrazol-5-yl)-3-(2,3-dichlorophenyl)urea], in that order: 5.29 and 6.67.
As for `CC(C)(C)c1cc(NC(=O)Nc2cccc(Oc3cccnc3)c2)n(-c2cc(CC(N)=O)c3ccccc3c2)n1` [Example 86, 1-(1-(4-(2-amino-2-oxoethyl)naphthalen-2-yl)-3-t-butyl-1H-pyrazol-5-yl)-3-(3-(pyridin-3-yloxy)phenyl)urea hydrochloride], the pIC50 in test [4] is 9.00; in test [5], 6.75; in test [7], 7.62.
Consider `CNC(=O)c1cc(Oc2ccc(NC(=O)Nc3cc(C(C)(C)C)nn3-c3ccc4nc(N)ccc4c3)cc2)ccn1` [Example 176, 1-(1-(2-aminoquinolin-6-yl)-3-t-butyl-1H-pyrazol-5-yl)-3-(4-(2-(methylcarbamoyl)pyridin-4-yloxy)phenyl)urea], for which the results for the pIC50 in test [4] (setting [9]) and in test [5] were 8.55 and 7.36, respectively.
Turning to `CC(C)(C)c1cc(NC(=O)Nc2cccc(Oc3cccnc3)c2)n(-c2ccc3c(c2)CC(C(=O)O)NC3)n1` (stereo not shown) [Example 189, 6-(3-t-butyl-5-(3-(3-(pyridin-3-yloxy)phenyl)ureido)-1H-pyrazol-1-yl)-1,2,3,4-tetrahydroisoquinoline-3-carboxylic acid], the figures for the pIC50 in test [4] (setting [9]), in test [8] and in test [5] were 8.52, 7.64 and 6.04, respectively.
Regarding `Cn1c(=O)c(-c2cccc(NC(=O)Nc3cc(C(C)(C)C)nn3-c3ccc4[nH]ccc4c3)c2)cc2cncnc21` [Example 118, 1-(3-t-butyl-1-(1H-indol-5-yl)-1H-pyrazol-5-yl)-3-(3-(8-methyl-7-oxo-7,8-dihydropyrido[2,3-d]pyrimidin-6-yl)phenyl)urea], the figures for the pIC50 in test [4] (setting [9]) and in test [5] were 7.96 and 7.64, respectively.
As for `CC(C)(C)c1cc(NC(=O)Nc2cccc(Cl)c2Cl)n(-c2ccc3nc[nH]c(=O)c3c2)n1` [Example 195, 1-(3-t-butyl-1-(4-oxo-3,4-dihydroquinazolin-6-yl)-1H-pyrazol-5-yl)-3-(2,3-dichlorophenyl)urea], the pIC50 was 6.04 in test [4] (setting [9]), 6.53 in test [5] and 7.34 in test [7] (setting [10]).

The term inhibition denotes the relative decrease from the control value, in per cent.

The values above are taken from patent publication US8163756B2 (priority 2004, dated 2012).
